Entries after “also recorded” stand apart in the source; their conditions may differ.
Experiments:
[1] = tested on: Heparanase gene expression; assay: Real-Time PCR of Heparanase gene expression in U266 myeloma cells; assay type: cell-based; settings: DF 150 and 400 μg/ml, 24 h, vs saline control, triplicate
Protocol: (§1) To evaluate the effect of DF either on Heparanase expression and its activity, the U266 and HMEC cells were incubated for 24 h with DF at different concentrations or saline (control cells). After incubation with Defibrotide, the cells were washed with phosphate-buffered saline (PBS) pH 7.4, and different U266 and HMEC samples were prepared for different experiments.
(§2) RNA has been isolated from U266 and HMEC cells (1.5×10^5 Cells/ml) treated with saline (control) or DF at doses of 150 and 400 μg/ml for 24 h. To isolate the RNA were used the RNeasy Mini Kit from Qiagen according the manufacture's instructions.
(§3) The 1% agarose gel electrophoresis, stained with Ethidium Bromide, was performed on all samples to check for presence of clear 28S and 18S ribosomal subunit bands. […]
(§4) In order to perform the Real Time PCR was used the SYBER Green PCR Master Mix Reagent (SYBER Green PCR--Bio-Rad). Direct detection of polymerase chain reaction (PCR) product was monitored by measuring the increase in fluorescence caused by the binding of SYBER Green to double-stranded DNA. […]
Real-Time PCR was performed on cDNAs prepared from U266 cells treated with saline (control) or DF at dose of 150 and 400 μg/ml. The experiments were performed in triplicate and the results are expressed as mRNA levels normalized by the housekeeping actin gene.

Heparanase = target: T1, Heparanase (Homo sapiens, UniProt Q9Y251); assay: Heparanase activity assay (Heparan Degrading Enzyme Assay Kit) in U266 extracts; assay type: cell-based; settings: U266 cells, DF 50, 100 and 150 μg/ml, 24 h, vs saline control, triplicate
T1 construct: The Heparanase activity was measured in U266 extracts (1×10^5 Cell/ml of extraction buffer) by a commercial Heparan Degrading Enzyme Kit; endogenous in cells; host or cells: U266 myeloma cells (cell extract)
T1 sequence (Q9Y251 158-543 limits assumed): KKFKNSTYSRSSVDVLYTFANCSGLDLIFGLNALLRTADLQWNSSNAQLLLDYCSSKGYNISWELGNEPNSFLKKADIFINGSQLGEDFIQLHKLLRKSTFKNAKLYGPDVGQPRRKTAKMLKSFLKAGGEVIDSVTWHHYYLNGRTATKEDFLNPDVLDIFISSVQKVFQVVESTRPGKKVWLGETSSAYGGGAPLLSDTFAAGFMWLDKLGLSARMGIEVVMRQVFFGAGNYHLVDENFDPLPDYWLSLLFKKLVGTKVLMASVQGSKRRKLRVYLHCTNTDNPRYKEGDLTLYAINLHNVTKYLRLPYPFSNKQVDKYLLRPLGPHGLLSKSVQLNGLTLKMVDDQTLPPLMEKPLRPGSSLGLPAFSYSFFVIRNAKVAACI
T1 sequence (Q9Y251 36-109 limits assumed): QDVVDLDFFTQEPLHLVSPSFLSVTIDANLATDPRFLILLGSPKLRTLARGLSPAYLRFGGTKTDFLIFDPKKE
Protocol: as §1
The Heparanase activity was measured in U266 extracts (1×10^5 Cell/ml of extraction buffer) by a commercial Heparan Degrading Enzyme Kit (Takara-bio Inc.) according to manufacturer's instruction. The U266 cells have been treated with saline (control) or DF at doses of 50, 100 and 150 μg/ml for 24 h.
Heparan Degrading Enzyme Assay Kit measure the activity of heparan degrading enzyme in cultured cells, utilizing the property that heparan-like molecules and bFGF (basic fibroblast growth factor) combine each other. CBD-FGF is a fusion protein of cell-binding domain of human fibronectin and human fibroblast growth factor (Takara-bio Inc.). […]
The activity of Heparanase were measured using the Heparanse Degrading Enzyme Assay kit on U266 cells treated with saline (control) or Defibrotide at dose of 50, 100 and 150 μg/ml. The experiments were performed in triplicate and the activity of Heparanase is shown with decrease of absorbance.

[2] = tested on: Heparanase gene expression; assay: Real-Time PCR of Heparanase gene expression in HMEC cells; assay type: cell-based, human; settings: DF 150 μg/ml, 24 h, vs saline control, triplicate
Protocol: as §1, §2, §3, §4
Real-Time PCR was performed on cDNAs prepared from HMEC cells treated with saline (control) or DF at dose of 150 μg/ml. The experiments were performed in triplicate and the results are expressed as mRNA levels normalized by the housekeeping actin gene.

defibrotide [DF]
Effect on Heparanase gene expression (mRNA levels normalized by the housekeeping actin gene) [1]: acts on U266 myeloma cells line through altering the Heparanase gene expression; also recorded: down regulation of Heparanase gene
Effect on enzymatic activity of Heparanase (shown with decrease of absorbance) (Heparanase): interferes on the Heparanase activity in the myeloma cell line; also recorded: decrease of its enzymatic activity
Effect on Heparanase gene expression (mRNA levels normalized by the housekeeping actin gene) [2]: acts on Microvascular endothelial cells through altering the Heparanase gene expression; also recorded: downregulation of Heparanase gene expression on HMEC cells

Source: US20150196580A1, “USE OF DEFIBROTIDE FOR THE INHIBITION OF HEPARANASE” (GENTIUM SPA, priority 2006, published 2015)
